Where a name gives a salt, the structure may show the parent alone.
Molecular target: human CYP2D6 (Homo sapiens, UniProt P10635)
Assay: not given
Conditions: not given

human CYP2D6, sequence (P10635 whole entry): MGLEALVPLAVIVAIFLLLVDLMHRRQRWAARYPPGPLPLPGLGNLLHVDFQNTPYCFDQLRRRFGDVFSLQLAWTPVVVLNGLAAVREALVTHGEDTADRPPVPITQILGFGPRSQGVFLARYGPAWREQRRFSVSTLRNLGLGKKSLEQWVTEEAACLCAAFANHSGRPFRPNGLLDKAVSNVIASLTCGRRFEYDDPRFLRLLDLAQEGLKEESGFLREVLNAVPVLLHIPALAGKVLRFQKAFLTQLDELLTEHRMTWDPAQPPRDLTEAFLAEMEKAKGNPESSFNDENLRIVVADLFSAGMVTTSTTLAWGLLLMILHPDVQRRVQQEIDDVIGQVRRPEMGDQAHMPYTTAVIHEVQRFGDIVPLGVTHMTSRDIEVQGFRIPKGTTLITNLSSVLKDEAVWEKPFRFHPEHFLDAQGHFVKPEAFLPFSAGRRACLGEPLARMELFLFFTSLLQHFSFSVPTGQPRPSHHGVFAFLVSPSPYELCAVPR

| SMILES | CYP2D6 IC50 (half-maximal inhibitory concentration) | CYP2D6 IC50 |
| --- | --- | --- |
| CCOP(=S)(OCC)Oc1ccc(Cl)cc1Cl [Dichlofenthion] | Inactive | – |
| O=S1(=O)OCC2C(CO1)C1(Cl)C(Cl)=C(Cl)C2(Cl)C1(Cl)Cl (centres unmarked) [Endosulfan sulfate] | – | Inactive |
| CCN(Cc1c(F)cccc1Cl)c1c([N+](=O)[O-])cc(C(F)(F)F)cc1[N+](=O)[O-] [Flumetralin] | Inactive | – |
| CO/N=C(/C(=O)OC)c1ccccc1COc1ccccc1C [Kresoxim-methyl] | Inactive | – |
| CC(C)(C(=O)c1cccnc1)c1cccnc1 [Metyrapone] | Inactive | – |
| CCN(CC)C(=O)C(C)Oc1cccc2ccccc12 (centres unmarked) [Napropamide] | Inactive | – |

Molecular target: T1, CYP3A4 (Homo sapiens, UniProt P08684)
Assay: not given
Conditions: not given

T1 sequence (P08684 whole entry): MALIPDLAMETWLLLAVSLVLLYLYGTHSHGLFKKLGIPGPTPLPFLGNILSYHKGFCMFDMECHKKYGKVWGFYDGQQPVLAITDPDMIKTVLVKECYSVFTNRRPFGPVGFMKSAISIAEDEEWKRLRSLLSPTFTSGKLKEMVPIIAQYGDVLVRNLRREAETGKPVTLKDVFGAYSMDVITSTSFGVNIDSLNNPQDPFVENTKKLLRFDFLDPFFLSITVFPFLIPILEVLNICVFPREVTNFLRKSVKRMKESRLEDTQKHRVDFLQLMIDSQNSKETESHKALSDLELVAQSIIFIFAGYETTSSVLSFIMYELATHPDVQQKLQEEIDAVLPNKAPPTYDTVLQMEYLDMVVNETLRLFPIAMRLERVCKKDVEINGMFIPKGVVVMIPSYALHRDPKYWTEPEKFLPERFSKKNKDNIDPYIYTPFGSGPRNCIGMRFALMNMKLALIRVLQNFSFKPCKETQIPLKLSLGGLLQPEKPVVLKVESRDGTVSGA

| SMILES | CYP3A4 Efficacy (in parenthesis) |
| --- | --- |
| CCOP(=S)(OCC)Oc1ccc(Cl)cc1Cl [Dichlofenthion] | 2.22 ± 0.62 (-82 ± 5) % |
| CC(C)(C(=O)c1cccnc1)c1cccnc1 [Metyrapone] | 0.57 ± 0.16 (-62 ± 5) % |

Molecular target: T1, CYP3A4
Assay: biochemical
Conditions: CYP3A4 IC50

| SMILES | IC50 [µM] |
| --- | --- |
| O=S1(=O)OCC2C(CO1)C1(Cl)C(Cl)=C(Cl)C2(Cl)C1(Cl)Cl (centres unmarked) [Endosulfan sulfate] | 0.22 |

Same assay, conditions: CYP3A4 IC50 (half-maximal inhibitory concentration)

| SMILES | IC50 [µM] |
| --- | --- |
| CCOP(=S)(OCC)Oc1ccc(Cl)cc1Cl [Dichlofenthion] | 2.22 |
| CCN(Cc1c(F)cccc1Cl)c1c([N+](=O)[O-])cc(C(F)(F)F)cc1[N+](=O)[O-] [Flumetralin] | 0.38 |
| CO/N=C(/C(=O)OC)c1ccccc1COc1ccccc1C [Kresoxim-methyl] | 9.48 |
| CC(C)(C(=O)c1cccnc1)c1cccnc1 [Metyrapone] | 0.57 |
| CCN(CC)C(=O)C(C)Oc1cccc2ccccc12 (centres unmarked) [Napropamide] | 7.56 |

Molecular target: T2, human CYP1A2 (Homo sapiens, UniProt P05177)
T2 sequence (P05177 1-516): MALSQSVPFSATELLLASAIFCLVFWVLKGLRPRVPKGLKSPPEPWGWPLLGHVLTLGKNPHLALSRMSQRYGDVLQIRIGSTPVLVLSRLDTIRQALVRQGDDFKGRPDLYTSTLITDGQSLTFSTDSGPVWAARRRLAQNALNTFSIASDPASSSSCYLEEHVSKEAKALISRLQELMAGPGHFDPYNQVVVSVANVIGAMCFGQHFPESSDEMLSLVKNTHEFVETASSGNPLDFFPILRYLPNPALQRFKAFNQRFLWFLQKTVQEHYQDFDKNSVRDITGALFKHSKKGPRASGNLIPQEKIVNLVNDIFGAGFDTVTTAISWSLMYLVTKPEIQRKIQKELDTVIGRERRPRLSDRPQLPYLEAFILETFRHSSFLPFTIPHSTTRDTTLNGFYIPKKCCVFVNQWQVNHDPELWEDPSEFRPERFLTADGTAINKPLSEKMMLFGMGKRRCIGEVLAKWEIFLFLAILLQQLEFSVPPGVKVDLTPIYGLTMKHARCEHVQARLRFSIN
Assay: not given
Conditions: not given

| SMILES | CYP1A2 IC50 (half-maximal inhibitory concentration) |
| --- | --- |
| CCN(Cc1c(F)cccc1Cl)c1c([N+](=O)[O-])cc(C(F)(F)F)cc1[N+](=O)[O-] [Flumetralin] | Inactive |
| CC(C)(C(=O)c1cccnc1)c1cccnc1 [Metyrapone] | Inactive |

Same assay, conditions: human

| SMILES | CYP1A2 Efficacy (in parenthesis) |
| --- | --- |
| CCOP(=S)(OCC)Oc1ccc(Cl)cc1Cl [Dichlofenthion] | 3.07 ± 0.42 (-101 ± 5) % |

Molecular target: T2, human CYP1A2
Assay: biochemical
Conditions: CYP1A2 IC50

| SMILES | IC50 [µM] |
| --- | --- |
| O=S1(=O)OCC2C(CO1)C1(Cl)C(Cl)=C(Cl)C2(Cl)C1(Cl)Cl (centres unmarked) [Endosulfan sulfate] | 47.5 |

Same assay, conditions: CYP1A2 IC50 (half-maximal inhibitory concentration)

| SMILES | IC50 [µM] |
| --- | --- |
| CCOP(=S)(OCC)Oc1ccc(Cl)cc1Cl [Dichlofenthion] | 3.07 |
| CO/N=C(/C(=O)OC)c1ccccc1COc1ccccc1C [Kresoxim-methyl] | 22 |
| CCN(CC)C(=O)C(C)Oc1cccc2ccccc12 (centres unmarked) [Napropamide] | 25 |

Molecular target: Photinus pyralis (firefly) luciferase (Photinus pyralis, UniProt P08659)
Assay: biochemical
Assay type: biochemical
Conditions: not given

Photinus pyralis (firefly) luciferase, sequence (P08659 whole entry): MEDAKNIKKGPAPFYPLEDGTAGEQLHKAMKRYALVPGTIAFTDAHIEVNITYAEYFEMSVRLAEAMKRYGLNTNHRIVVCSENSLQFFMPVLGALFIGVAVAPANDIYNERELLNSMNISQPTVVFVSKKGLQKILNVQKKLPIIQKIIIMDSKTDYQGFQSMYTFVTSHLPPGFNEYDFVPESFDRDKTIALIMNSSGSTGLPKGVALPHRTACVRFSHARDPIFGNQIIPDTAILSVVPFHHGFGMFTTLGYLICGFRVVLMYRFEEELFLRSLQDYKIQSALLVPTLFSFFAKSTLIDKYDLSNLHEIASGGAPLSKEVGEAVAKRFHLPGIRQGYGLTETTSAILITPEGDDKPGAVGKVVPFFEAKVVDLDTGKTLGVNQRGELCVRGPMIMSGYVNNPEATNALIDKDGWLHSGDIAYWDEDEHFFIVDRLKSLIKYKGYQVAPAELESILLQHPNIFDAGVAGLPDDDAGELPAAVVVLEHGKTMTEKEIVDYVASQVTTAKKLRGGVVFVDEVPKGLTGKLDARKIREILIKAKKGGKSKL

| SMILES | Luciferase IC50 (half-maximal inhibitory concentration) | IC50 [µM] |
| --- | --- | --- |
| CCOP(=S)(OCC)Oc1ccc(Cl)cc1Cl [Dichlofenthion] | Inactive | – |
| O=S1(=O)OCC2C(CO1)C1(Cl)C(Cl)=C(Cl)C2(Cl)C1(Cl)Cl (centres unmarked) [Endosulfan sulfate] | – | 53.2 |
| CCN(Cc1c(F)cccc1Cl)c1c([N+](=O)[O-])cc(C(F)(F)F)cc1[N+](=O)[O-] [Flumetralin] | Inactive | – |
| CO/N=C(/C(=O)OC)c1ccccc1COc1ccccc1C [Kresoxim-methyl] | Inactive | – |
| CC(C)(C(=O)c1cccnc1)c1cccnc1 [Metyrapone] | Inactive | – |
| CCN(CC)C(=O)C(C)Oc1cccc2ccccc12 (centres unmarked) [Napropamide] | Inactive | – |

Molecular target: T3, human CYP2C9 (Homo sapiens, UniProt P11712)
Assay: not given
Conditions: not given

T3 sequence (P11712 whole entry): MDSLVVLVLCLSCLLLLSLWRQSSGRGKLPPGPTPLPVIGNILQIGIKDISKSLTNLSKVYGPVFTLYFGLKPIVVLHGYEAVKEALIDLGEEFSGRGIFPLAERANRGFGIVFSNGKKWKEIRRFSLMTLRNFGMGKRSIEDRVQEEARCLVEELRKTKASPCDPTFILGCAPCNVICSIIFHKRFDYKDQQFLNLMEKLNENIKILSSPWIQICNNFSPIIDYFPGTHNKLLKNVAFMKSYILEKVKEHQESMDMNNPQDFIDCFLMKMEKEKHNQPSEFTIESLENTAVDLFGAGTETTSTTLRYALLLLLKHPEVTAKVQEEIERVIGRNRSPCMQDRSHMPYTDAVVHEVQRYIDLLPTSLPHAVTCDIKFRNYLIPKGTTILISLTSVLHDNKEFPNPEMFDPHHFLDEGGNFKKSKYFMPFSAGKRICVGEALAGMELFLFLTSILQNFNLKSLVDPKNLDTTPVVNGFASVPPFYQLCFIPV

| SMILES | CYP2C9 IC50 (half-maximal inhibitory concentration) |
| --- | --- |
| CC(C)(C(=O)c1cccnc1)c1cccnc1 [Metyrapone] | Inactive |

Same assay, conditions: human

| SMILES | CYP2C9 Efficacy (in parenthesis) |
| --- | --- |
| CCOP(=S)(OCC)Oc1ccc(Cl)cc1Cl [Dichlofenthion] | 3.56 ± 0 (-100 ± 3) % |

Molecular target: T4, human CYP2C19 (Homo sapiens, UniProt P33261)
Assay: biochemical
Conditions: CYP2C19 IC50

T4 sequence (P33261 whole entry): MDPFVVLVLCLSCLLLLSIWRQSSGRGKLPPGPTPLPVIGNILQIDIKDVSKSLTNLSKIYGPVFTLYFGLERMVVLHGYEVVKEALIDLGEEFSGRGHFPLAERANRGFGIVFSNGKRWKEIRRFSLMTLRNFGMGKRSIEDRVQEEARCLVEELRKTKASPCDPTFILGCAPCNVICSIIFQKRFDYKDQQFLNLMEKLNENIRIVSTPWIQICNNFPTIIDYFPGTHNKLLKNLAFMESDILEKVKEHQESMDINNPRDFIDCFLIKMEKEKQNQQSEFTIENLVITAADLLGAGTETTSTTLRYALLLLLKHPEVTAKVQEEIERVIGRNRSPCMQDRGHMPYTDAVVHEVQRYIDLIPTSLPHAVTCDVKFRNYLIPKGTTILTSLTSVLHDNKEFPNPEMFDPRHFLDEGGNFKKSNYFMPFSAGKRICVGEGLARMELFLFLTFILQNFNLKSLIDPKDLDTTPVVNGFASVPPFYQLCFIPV

| SMILES | IC50 [µM] |
| --- | --- |
| O=S1(=O)OCC2C(CO1)C1(Cl)C(Cl)=C(Cl)C2(Cl)C1(Cl)Cl (centres unmarked) [Endosulfan sulfate] | 2.25 |

Same assay, conditions: CYP2C19 IC50 (half-maximal inhibitory concentration)

| SMILES | IC50 [µM] |
| --- | --- |
| CCOP(=S)(OCC)Oc1ccc(Cl)cc1Cl [Dichlofenthion] | 0.44 |
| CCN(Cc1c(F)cccc1Cl)c1c([N+](=O)[O-])cc(C(F)(F)F)cc1[N+](=O)[O-] [Flumetralin] | 2.22 |
| CO/N=C(/C(=O)OC)c1ccccc1COc1ccccc1C [Kresoxim-methyl] | 0.51 |
| CCN(CC)C(=O)C(C)Oc1cccc2ccccc12 (centres unmarked) [Napropamide] | 0.66 |

Molecular target: T3, human CYP2C9
Assay: biochemical
Conditions: not given

| SMILES | IC50 [µM] |
| --- | --- |
| CCN(Cc1c(F)cccc1Cl)c1c([N+](=O)[O-])cc(C(F)(F)F)cc1[N+](=O)[O-] [Flumetralin] | 7.39 |

Same assay, conditions: CYP2C9 IC50

| SMILES | IC50 [µM] |
| --- | --- |
| O=S1(=O)OCC2C(CO1)C1(Cl)C(Cl)=C(Cl)C2(Cl)C1(Cl)Cl (centres unmarked) [Endosulfan sulfate] | 18.7 |

Same assay, conditions: CYP2C9 IC50 (half-maximal inhibitory concentration)

| SMILES | IC50 [µM] |
| --- | --- |
| CCOP(=S)(OCC)Oc1ccc(Cl)cc1Cl [Dichlofenthion] | 3.56 |
| CO/N=C(/C(=O)OC)c1ccccc1COc1ccccc1C [Kresoxim-methyl] | 19.6 |
| CCN(CC)C(=O)C(C)Oc1cccc2ccccc12 (centres unmarked) [Napropamide] | 29.9 |

Molecular target: T4, human CYP2C19
Assay: not given
Conditions: not given

| SMILES | CYP2C19 IC50 (half-maximal inhibitory concentration) |
| --- | --- |
| CC(C)(C(=O)c1cccnc1)c1cccnc1 [Metyrapone] | Inactive |

Same assay, conditions: human

| SMILES | CYP2C19 Efficacy (in parenthesis) |
| --- | --- |
| CCOP(=S)(OCC)Oc1ccc(Cl)cc1Cl [Dichlofenthion] | 0.44 ± 0.11 (-121 ± 28) % |

From publication PMC12155096 (International Journal of Molecular Sciences, 2025)
